Laboratory results published in patent US8802700B2 (Vertex Pharmaceuticals Incorporated, priority 2010, dated 2014).

target: T1, ΔF508-CFTR (Homo sapiens, UniProt P13569, DEL508-508); experiment: Membrane potential optical assay (FRET voltage-sensor dyes, VIPR), identification of potentiator compounds; type: cell-based; settings: Table 3; assay not given
T1 construct: expressed in transfected cells
Source text: The optical membrane potential assay utilized voltage-sensitive FRET sensors described by Gonzalez and Tsien (See Gonzalez, J. E. and R. Y. Tsien (1995) “Voltage sensing by fluorescence resonance energy transfer in single cells” Biophys J 69(4): 1272-80, and Gonzalez, J. E. and R. Y. Tsien (1997) “Improved indicators of cell membrane potential that use fluorescence resonance energy transfer” Chem Biol 4(4): 269-77) in combination with instrumentation for measuring fluorescence changes such as the Voltage/Ion Probe Reader (VIPR) (See […]. Oades, et al. (1999) “Cell-based assays and instrumentation for screening ion-channel targets” Drug Discov Today 4(9): 431-439). These voltage sensitive assays are based on the change in fluorescence resonant energy transfer (FRET) between the membrane-soluble, voltage-sensitive dye, DiSBAC2(3), and a fluorescent phospholipid, CC2-DMPE, which is attached to the outer leaflet of the plasma membrane and acts as a FRET donor. Changes in membrane potential (Vm) cause the negatively charged DiSBAC2(3) to redistribute across the plasma membrane and the amount of energy transfer from CC2-DMPE changes accordingly. The changes in fluorescence emission were monitored using VIPRTM II, which is an integrated liquid handler and fluorescent detector designed to conduct cell-based screens in 96- or 384-well microtiter plates. To identify potentiators of ΔF508-CFTR, a double-addition HTS assay format was developed. During the first addition, a Cl^--free medium with or without test compound was added to each well. […] (in mM) NaCl 160, KCl 4.5, CaCl2 2, MgCl2 1, HEPES 10, pH 7.4 with NaOH. • Chloride-free bath solution: Chloride salts in Bath Solution #1 are substituted with gluconate salts. • CC2-DMPE: Prepared as a 10 mM stock solution in DMSO and stored at -20° C. • DiSBAC2(3): Prepared as a 10 mM stock in DMSO and stored at -20° C. NIH3T3 mouse fibroblasts stably expressing ΔF508-CFTR are used for optical measurements of membrane potential. […] For all optical assays, the cells were seeded at 30,000/well in 384-well matrigel-coated plates and cultured for 2 hrs at 37° C. before culturing at 27° C. for 24 hrs. for the potentiator assay.

T1 sequence (P13569 with tags, fused parts or gaps DEL508-508): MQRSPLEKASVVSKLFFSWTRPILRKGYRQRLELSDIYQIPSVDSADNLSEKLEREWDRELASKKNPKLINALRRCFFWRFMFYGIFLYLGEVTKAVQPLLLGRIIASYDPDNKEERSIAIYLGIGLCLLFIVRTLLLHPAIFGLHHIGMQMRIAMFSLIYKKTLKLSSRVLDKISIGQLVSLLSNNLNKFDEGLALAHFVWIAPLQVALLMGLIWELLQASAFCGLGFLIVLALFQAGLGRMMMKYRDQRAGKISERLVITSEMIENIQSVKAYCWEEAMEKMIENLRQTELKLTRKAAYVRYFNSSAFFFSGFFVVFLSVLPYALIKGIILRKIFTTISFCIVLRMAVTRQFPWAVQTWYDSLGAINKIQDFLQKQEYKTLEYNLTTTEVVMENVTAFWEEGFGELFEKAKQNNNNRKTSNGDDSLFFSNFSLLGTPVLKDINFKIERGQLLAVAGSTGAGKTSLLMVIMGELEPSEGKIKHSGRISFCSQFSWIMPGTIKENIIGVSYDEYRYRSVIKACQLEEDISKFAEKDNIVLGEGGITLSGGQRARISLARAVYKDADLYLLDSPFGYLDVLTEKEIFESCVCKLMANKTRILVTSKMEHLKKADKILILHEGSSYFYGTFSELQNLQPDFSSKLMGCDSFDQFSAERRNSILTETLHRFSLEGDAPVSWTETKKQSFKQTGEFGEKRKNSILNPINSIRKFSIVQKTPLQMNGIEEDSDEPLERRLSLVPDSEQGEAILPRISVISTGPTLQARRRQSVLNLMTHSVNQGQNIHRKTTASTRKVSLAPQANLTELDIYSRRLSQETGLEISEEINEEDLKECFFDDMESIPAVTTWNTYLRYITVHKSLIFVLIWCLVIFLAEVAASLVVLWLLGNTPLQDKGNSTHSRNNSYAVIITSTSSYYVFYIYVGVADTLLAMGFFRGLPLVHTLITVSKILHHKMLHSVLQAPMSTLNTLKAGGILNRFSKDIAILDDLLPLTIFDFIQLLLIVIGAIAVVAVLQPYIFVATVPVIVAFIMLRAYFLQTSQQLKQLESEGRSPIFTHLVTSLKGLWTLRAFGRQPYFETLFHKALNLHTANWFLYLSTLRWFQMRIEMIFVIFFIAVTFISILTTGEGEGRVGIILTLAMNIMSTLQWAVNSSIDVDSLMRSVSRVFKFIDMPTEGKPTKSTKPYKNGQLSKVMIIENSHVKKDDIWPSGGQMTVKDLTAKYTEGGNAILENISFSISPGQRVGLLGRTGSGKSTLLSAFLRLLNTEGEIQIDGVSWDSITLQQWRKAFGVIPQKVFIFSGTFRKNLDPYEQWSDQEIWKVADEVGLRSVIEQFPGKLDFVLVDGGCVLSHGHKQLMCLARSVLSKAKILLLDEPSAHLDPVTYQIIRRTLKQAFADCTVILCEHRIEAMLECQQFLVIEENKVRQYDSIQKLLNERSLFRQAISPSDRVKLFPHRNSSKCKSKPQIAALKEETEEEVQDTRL

EC50 [µM]	SMILES
< 10	O=C(Nc1ccc(C2CCCCC2)cc1)c1c[nH]c2ccccc2c1=O [Compound 140, N-(4-cyclohexylphenyl)-4-oxo-1H-quinoline-3-carboxamide]
10 to 25	CC(C)(C)c1cc(C(C)(C)C)c(NC(=O)c2c[nH]c3ccc(C(F)(F)F)cc3c2=O)cc1O [Compound 515, N-(5-hydroxy-2,4-ditert-butyl-phenyl)-4-oxo-6-(trifluoromethyl)-1H-quinoline-3-carboxamide]

same assay, conditions: Table 3; assay not given; read-out: % Activity (% Efficacy, relative efficacy)

SMILES	Emax [%]
Cc1cccc2[nH]cc(C(=O)Nc3ccc(N4[C@@H](C)CC[C@@H]4C)cc3C(F)(F)F)c(=O)c12 [Compound 516, N-(4-((2S,5S)-2,5-dimethylpyrrolidin-1-yl)-2-(trifluoromethyl)phenyl)-5-methyl-4-oxo-1,4-dihydroquinoline-3-carboxamide]	25 to 100
Cc1cc(NC(=O)c2c[nH]c3ccccc3c2=O)ccc1F [Compound 257, N-(4-fluoro-3-methyl-phenyl)-4-oxo-1H-quinoline-3-carboxamide]	25 to 100
CCCCOC(=O)NCC(C)(C)c1ccc(NC(=O)c2c[nH]c3ccccc3c2=O)cc1 [Compound 460, [2-methyl-2-[4-[(4-oxo-1H-quinolin-3-yl)carbonylamino]phenyl]-propyl]aminoformic acid butyl ester]	25 to 100
CCOc1ccc2ncc(C(=O)Nc3ccc4cc[nH]c4c3)c(O)c2c1 [Compound 112, 6-ethoxy-4-hydroxy-N-(1H-indol-6-yl)quinoline-3-carboxamide]	25 to 100
O=C(Nc1ccccc1-c1ccccc1Oc1ccccc1)c1c[nH]c2ccccc2c1=O [Compound 247, 4-oxo-N-[2-(2-phenoxyphenyl)phenyl]-1H-quinoline-3-carboxamide]	25 to 100
CCCc1ccc(NC(=O)OC)cc1NC(=O)c1c[nH]c2ccccc2c1=O [Compound 471, [3-[(4-oxo-1H-quinolin-3-yl)carbonylamino]-4-propyl-phenyl]aminoformic acid methyl ester]	25 to 100
CS(=O)(=O)c1ccc(-c2ccccc2NC(=O)c2c[nH]c3ccccc3c2=O)cc1 [Compound 326, N-[2-(4-methylsulfonylphenyl)phenyl]-4-oxo-1H-quinoline-3-carboxamide]	25 to 100
O=C(Nc1cccn2ncnc12)c1c[nH]c2ccccc2c1=O [Compound 146, 4-oxo-N-(1,7,9-triazabicyclo[4.3.0]nona-2,4,6,8-tetraen-5-yl)-1H-quinoline-3-carboxamide]	< 25
O=C(Nc1ccccc1-c1ccco1)c1c[nH]c2ccccc2c1=O [Compound 115, N-[2-(2-furyl)phenyl]-4-oxo-1H-quinoline-3-carboxamide]	25 to 100
CNc1cccc2[nH]cc(C(=O)Nc3cc(O)c(C(C)(C)C)cc3C(C)(C)C)c(=O)c12 [Compound 542, N-(5-hydroxy-2,4-ditert-butyl-phenyl)-5-methylamino-4-oxo-1H-quinoline-3-carboxamide]	> 100
O=C(Nc1ccc2nc[nH]c2c1)c1c[nH]c2ccccc2c1=O [Compound 414, N-(3H-benzoimidazol-5-yl)-4-oxo-1H-quinoline-3-carboxamide]	< 25
CN(C)c1ccc2[nH]cc(C(=O)Nc3cc(O)c(C(C)(C)C)cc3C(C)(C)C)c(=O)c2c1 [Compound 544, 6-dimethylamino-N-(5-hydroxy-2,4-ditert-butyl-phenyl)-4-oxo-1H-quinoline-3-carboxamide]	25 to 100
O=C(Nc1ccc(C2CCCCC2)cc1)c1c[nH]c2ccccc2c1=O [Compound 140, N-(4-cyclohexylphenyl)-4-oxo-1H-quinoline-3-carboxamide]	25 to 100
CCc1ccc(NC(=O)OC)cc1NC(=O)c1c[nH]c2ccccc2c1=O [Compound 249, [4-ethyl-3-[(4-oxo-1H-quinolin-3-yl)carbonylamino]phenyl]aminoformic acid methyl ester]	25 to 100
CCCc1ccc(N(C)C)cc1NC(=O)c1c[nH]c2ccccc2c1=O [Compound 98, N-(5-dimethylamino-2-propyl-phenyl)-4-oxo-1H-quinoline-3-carboxamide]	25 to 100
CC(C)c1ccc(NC(=O)c2c[nH]c3ccccc3c2=O)cn1 [Compound 235, N-(6-isopropyl-3-pyridyl)-4-oxo-1H-quinoline-3-carboxamide]	25 to 100
CC(=O)n1ccc2ccc(NC(=O)c3c[nH]c4ccccc4c3=O)cc21 [Compound 187, N-(1-acetyl-1H-indol-6-yl)-4-oxo-1H-quinoline-3-carboxamide]	25 to 100
Cc1ccc2cccc(NC(=O)c3c[nH]c4ccccc4c3=O)c2n1 [Compound 364, N-(2-methyl-8-quinolyl)-4-oxo-1H-quinoline-3-carboxamide]	25 to 100
CC(C)(C)c1cc(C(C)(C)C)c(NC(=O)c2c[nH]c3c(F)cccc3c2=O)cc1O [Compound 687, 8-fluoro-N-(5-hydroxy-2,4-ditert-butyl-phenyl)-4-oxo-1H-quinoline-3-carboxamide]	25 to 100

Other lines, results leading:

Emax [%]	SMILES
25 to 100	Cn1ccc2ccc(NC(=O)c3c[nH]c4ccccc4c3=O)cc21 [Compound 169, N-(1-methyl-1H-indol-6-yl)-4-oxo-1H-quinoline-3-carboxamide]
25 to 100	O=C(Nc1ccc(Cl)cc1)c1c[nH]c2ccccc2c1=O [Compound 405, N-(4-chlorophenyl)-4-oxo-1H-quinoline-3-carboxamide]
25 to 100	O=C(Nc1ccccc1-c1cc2ccccc2s1)c1c[nH]c2ccccc2c1=O [Compound 172, N-(2-(benzo[b]thiophen-2-yl)phenyl)-1,4-dihydro-4-oxoquinoline-3-carboxamide]
> 100	O=C(Nc1ccccc1-c1ccc2c(c1)OCO2)c1c[nH]c2ccccc2c1=O [Compound 135, N-(2-benzo[1,3]dioxol-5-ylphenyl)-4-oxo-1H-quinoline-3-carboxamide]
25 to 100	Cc1cccc(-c2ccccc2NC(=O)c2c[nH]c3ccccc3c2=O)c1C [Compound 401, N-[2-(2,3-dimethylphenyl)phenyl]-4-oxo-1H-quinoline-3-carboxamide]
25 to 100	O=C(Nc1cc(O)c(C2CCCC2)cc1C#CCO)c1c[nH]c2ccccc2c1=O [Compound 512, N-[4-cyclopentyl-5-hydroxy-2-(3-hydroxyprop-1-ynyl)phenyl]-4-oxo-1H-quinoline-3-carboxamide]
25 to 100	Cc1cc(C(C)(C)C)c(O)cc1NC(=O)c1c[nH]c2cccc(O)c2c1=O [Compound 588, 5-hydroxy-N-(5-hydroxy-2-methyl-4-tert-butyl-phenyl)-4-oxo-1H-quinoline-3-carboxamide]
25 to 100	N#Cc1cccc(NC(=O)c2c[nH]c3ccccc3c2=O)c1 [Compound 447, N-(3-cyanophenyl)-4-oxo-1H-quinoline-3-carboxamide]
25 to 100	O=C(Nc1ccccc1N1CCN(C(=O)c2ccccc2)CC1)c1c[nH]c2ccccc2c1=O [Compound 321, N-[2-(4-benzoylpiperazin-1-yl)phenyl]-4-oxo-1H-quinoline-3-carboxamide]
25 to 100	O=C(Nc1ccc2cn[nH]c2c1)c1c[nH]c2ccccc2c1=O [Compound 284, N-(1H-indazol-6-yl)-4-oxo-1H-quinoline-3-carboxamide]
> 100	O=C(Nc1cccc2c1CCCC2)c1c[nH]c2ccccc2c1=O [Compound 286, 1,4-dihydro-N-(1,2,3,4-tetrahydronaphthalen-5-yl)-4-oxoquinoline-3-carboxamide]
< 25	CC(C)(C)c1cc(C(C)(C)C)c(NC(=O)c2c[nH]c3ccc(C(F)(F)F)cc3c2=O)cc1O [Compound 515, N-(5-hydroxy-2,4-ditert-butyl-phenyl)-4-oxo-6-(trifluoromethyl)-1H-quinoline-3-carboxamide]
< 25	COc1ccc(NC(C)=O)cc1NC(=O)c1c[nH]c2ccccc2c1=O [Compound 250, N-(5-acetylamino-2-methoxy-phenyl)-4-oxo-1H-quinoline-3-carboxamide]
< 25	O=C(Nc1ccc2[nH]c(=O)oc2c1)c1c[nH]c2ccccc2c1=O [Compound 152, 4-oxo-N-(2-oxo-3H-benzooxazol-6-yl)-1H-quinoline-3-carboxamide]
25 to 100	CC(C)(C)c1cc2cc[nH]c2cc1NC(=O)c1c[nH]c2ccc(O)cc2c1=O [Compound 679, 6-hydroxy-4-oxo-N-(5-tert-butyl-1H-indol-6-yl)-1H-quinoline-3-carboxamide]
25 to 100	O=C(Nc1ccc2[nH]ccc2c1)c1c[nH]c2ccccc2c1=O [Compound 294, N-(1H-indol-5-yl)-4-oxo-1H-quinoline-3-carboxamide]
25 to 100	COC(=O)NC1CCCc2ccc(NC(=O)c3c[nH]c4ccccc4c3=O)cc21 (stereo not drawn) [Compound 159, [7-[(4-Oxo-1H-quinolin-3-yl)carbonylamino]tetralin-1-yl]aminoformic acid methyl ester]
25 to 100	CCOC(=O)Nc1cc(NC(=O)c2c[nH]c3ccccc3c2=O)ccc1C(C)(C)C [Compound 127, [5-[(4-oxo-1H-quinolin-3-yl)carbonylamino]-2-tert-butyl-phenyl]aminoformic acid ethyl ester]
